Assay results reported in publication PMC6222787, “Anti-Inflammatory Activities of Compounds Isolated from the Rhizome of Anemarrhena asphodeloides” (Molecules : A Journal of Synthetic Chemistry and Natural …, 2018).
Read-outs that look alike come from different tables or passages of the source.

What was measured:
[1] = test system: LPS-induced NO production in N9 microglial cells; assay: LPS-induced NO production (Griess assay); format: cell-based, mouse; details: for Nitrite: control 4.60, LPS group 31.81 μM; for Nitrite / inhibition at 25 µM / inhibition at 50 µM / % Inhibition of NO Production: mean ± S.E.M.; for inhibition at 25 µM / inhibition at 50 µM: Mus musculus
Experimental: Figure 2 Inhibitory effects of TBIII (A) and t-HL (B) in LPS-stimulated N9 microglial cells. Cells were pretreated with different concentrations of TBIII and t-HL 1 h prior to the addition of LPS (100 ng/mL) and were further incubated for 24 h. NO production was determined by using the Griess reagent. IC50 values and curve fitting were determined using Graphpad Prism (GraphPad, Avenida, CA, USA).
Accumulation of nitrite, a metabolite of NO in the culture media, was measured by Griess assay as previously reported. Briefly, cells were stimulated with 100 ng/mL of LPS for 24 h in the presence of the test compounds (0–50 μM).

[2] = MTT assay for cell viability; details: mouse, N9 microglial cells, % Cell Viability, 24 h, MTT, mean ± S.E.M.; for viability at 24 h, 25 µM: 25 μM compound; for viability at 24 h, 50 µM: 50 μM compound
Experimental: The N9 microglial cell line was obtained from China Cell Line Bank. The cells were grown at 37 °C in IMDM supplemented with 10% heat-inactivated FBS under a humidified atmosphere of 5% CO2. In this experiment, cells were allowed to acclimate for 24 h before treatments.
Cell viability was evaluated by the MTT reduction assay [36]. Cells were seeded in 96-well plates at a density of 2 × 10^4 cells/well and allowed to grow for 24 h before treatments. Thereafter, 100 μL medium containing various concentrations (0–50 μM) of compounds were added and incubated for another 24 h. MTT was dissolved in DD water (5 mg/mL) and 10 μL were added to each well. After 4 h, the medium was removed and 100 μL DMSO were filled in each well. The optical density was measured at 490 nm on a Flexstation 3 (Molecular Devices, Silicon Valley, CA, USA).

[3] = 25 μM compound, LPS 100 ng/mL, 24 h
[4] = 50 μM compound, LPS 100 ng/mL, 24 h
[5] = N9, 24 h, 25 μM compound, LPS 100 ng/mL, 24 h, read-out: % Inhibition of NO Production
[6] = N9, 24 h, 50 μM compound, LPS 100 ng/mL, 24 h, read-out: % Inhibition of NO Production
[7] = 50 μM compound, LPS 100 ng/mL, 24 h, 50 µM
[8] = 25 μM compound, LPS 100 ng/mL, 24 h, 25 µM
[9] = N9, 24 h, read-out: % Inhibition of NO Production, 25 μM compound, LPS 100 ng/mL, 24 h
[10] = N9, 24 h, read-out: % Inhibition of NO Production, 50 μM compound, LPS 100 ng/mL, 24 h
[11] = N9, 25 μM compound, LPS 100 ng/mL, 24 h, read-out: % Inhibition of NO Production
[12] = N9, 50 μM compound, LPS 100 ng/mL, 24 h, read-out: % Inhibition of NO Production

| SMILES | Nitrite [1, 3] | Nitrite [1, 4] | inhibition at 25 µM [1, 5] | inhibition at 50 µM [1, 6] | viability at 24 h, 25 µM [2] | viability at 24 h, 50 µM [2] | % Inhibition of NO Production [1, 7] | cytotoxicity against N9 microglial cells (in words) (N9 microglial cells) | cell viability reduced to (N9 microglial cells; mouse, 24 h) | % Cell Viability (N9 microglial cells; mouse, 24 h, 25 µM) | % Cell Viability (N9 microglial cells; mouse, 24 h, 50 µM) | % Inhibition of NO Production [1, 8] | inhibition at 25 µM [1, 9] | inhibition at 50 µM [1, 10] | inhibition at 25 µM [1, 11] | inhibition at 50 µM [1, 12] | inhibitory activity on NO production (in words) ([1]; compared with compound 11) |
| --- | --- | --- | --- | --- | --- | --- | --- | --- | --- | --- | --- | --- | --- | --- | --- | --- | --- |
| C=CCOC1O[C@H](CO)[C@@H](O)[C@H](O)[C@H]1O (stereo in doubt) [Compound 26, α-D-Glucose monoallyl ether] | 29.57 ± 0.71 µM | 22.60 ± 2.19 µM | 7.13 ± 2.23% | 29 ± 8.43% | 107.2 ± 0.63% | 105 ± 16.1% |  |  |  |  |  |  |  |  |  |  |  |
| COc1cc(O)c(C(=O)c2ccc(O)cc2)c(O)c1 [Compound 1, 2,6,4′-trihydroxy-4-methoxybenzophenone] | 26.78 ± 1.27 µM | 19.29 ± 0.10 µM | 15.3 ± 9.4% | 41.7 ± 3.9% | 98.7 ± 8.27% | 97.5 ± 1.85% |  |  |  |  |  |  |  |  |  |  |  |
| COc1ccc(C(=O)c2ccc(O)cc2)c(OC2OC(CO)C(O)C(O)C2O)c1O (stereo not drawn) [Compound 2, Zimoside A] | 26.64 ± 1.13 µM | 21.41 ± 0.92 µM | 16.3 ± 3.55% | 32.8 ± 2.88% | 97.2 ± 3.27% | 94.6 ± 5.47% |  |  |  |  |  |  |  |  |  |  |  |
| O=C(c1ccc(O)cc1)c1c(O)cc(O)cc1O [Compound 3, Iriflophene] | 26.06 ± 1.24 µM | 20.41 ± 0.38 µM | 18.1 ± 3.88% | 35.9 ± 1.2% | 107 ± 3.62% | 113 ± 5.32% |  |  |  |  |  |  |  |  |  |  |  |
| CC(C)CCC1(O)OC2C(O)C3C4CCC5CC(OC6OC(CO)C(O)C(O)C6OC6OC(CO)C(O)C(O)C6O)CCC5(C)C4CCC3(C)C2C1C (stereo not drawn) [Compound 4, Anemarrhenasaponin II] | 9.52 ± 0.84 µM | 3.80 ± 0.53 µM |  |  |  |  | 87.98 ± 2.99 % | potent cytotoxicity | ≤ 60% | 63.92 ± 5.98 % | 8.57 ± 0.11 % |  |  |  |  |  |  |
| CC(C)CCC1(O)OC2C(O)C3C4CCC5CC(OC6OC(CO)C(O)C(O)C6OC6OC(CO)C(O)C(O)C6O)CCC5(C)C4CCC3(C)C2C1C (stereo not drawn) [Compound 5, Anemarrhenasaponin I] | 29.82 ± 0.24 µM | 19.14 ± 0.59 µM |  |  |  |  | 39.90 ± 1.85 % | not |  | 110.42 ± 4.67% | 115.47 ± 6.83% | 6.36 ± 0.76 % |  |  |  |  |  |
| CC(CCC1(O)OC2CC3C4CCC5CC(OC6OC(CO)C(O)C(O)C6OC6OC(CO)C(O)C(O)C6O)CCC5(C)C4CCC3(C)C2C1C)COC1OC(CO)C(O)C(O)C1O (stereo not drawn) [Compound 6, Anemarnoside B] | 40.89 ± 2.04 µM | 26.38 ± 2.63 µM |  |  | 115 ± 5.52% | 104 ± 16.5% |  |  |  |  |  |  | -28.3 ± 6.4% | 17.2 ± 8.26% |  |  |  |
| CC(CCC1(O)OC2CC3C4CCC5CC(OC6OC(CO)C(OC7OC(CO)C(O)C(OC8OCC(O)C(O)C8O)C7OC7OC(CO)C(O)C(O)C7O)C(O)C6O)C(O)CC5(C)C4CCC3(C)C2C1C)COC1OC(CO)C(O)C(O)C1O (stereo not drawn) [Compound 7, Hostaplantagineoside C] | 32.76 ± 0.85 µM | 23.52 ± 0.37 µM |  |  | 84.9 ± 1.82% | 79.7 ± 6.03% |  |  |  |  |  |  |  |  | -3.57 ± 8.75% | 25.8 ± 2.4% |  |
| CC1=C(CCC(C)COC2OC(CO)C(O)C(O)C2O)OC2CC3C4CCC5CC(OC6OC(CO)C(O)C(O)C6OC6OC(CO)C(O)C(O)C6O)CCC5(C)C4CCC3(C)C12 (stereo not drawn) [Compound 12, Macrostemonoside F] | 19.64 ± 1.21 µM | 11.82 ± 1.03 µM |  |  |  |  | 62.89 ± 3.22 % |  |  | 104.74 ± 3.16% | 105.77 ± 2.84% | 38.33 ± 3.80 % |  |  |  |  |  |
| CC1=C(CCC(C)COC2OC(CO)C(O)C(O)C2O)OC2CC3C4CCC5CC(OC6OC(CO)C(O)C(O)C6OC6OC(CO)C(O)C(O)C6O)CCC5(C)C4CCC3(C)C12 (stereo not drawn) [Compound 13, Timosaponin C] | 24.24 ± 1.32 µM | 13.36 ± 0.56 µM |  |  |  |  | 58.10 ± 1.75 % |  |  | 109.04 ± 4.85% | 97.19 ± 6.46% | 23.94 ± 4.13% |  |  |  |  | much weaker inhibitory activity |
| C[C@@H]1O[C@@H](O[C@H]2[C@H](OC(=O)[C@]34CCC(C)(C)C[C@H]3C3=CC[C@@H]5[C@@]6(C)C[C@H](O)[C@H](O[C@@H]7O[C@H](CO)[C@@H](O)[C@H](O[C@@H]8O[C@H](CO)[C@@H](O)[C@H](O)[C@H]8O)[C@H]7O)C(CO)(CO)[C@@H]6CC[C@@]5(C)[C@]3(C)C[C@H]4O)OC[C@H](O)[C@@H]2O)[C@H](O)[C@H](O)[C@H]1O[C@@H]1OC[C@@H](O)[C@H](O[C@@H]2OC[C@](O)(CO)[C@H]2O)[C@H]1O [Compound 16, Platycodin D2] | 33.68 ± 1.44 µM | 24.94 ± 0.45 µM | -5.78 ± 4.51% | 21.7 ± 1.4% | 114 ± 4.62% | 101 ± 1.83% |  |  |  |  |  |  |  |  |  |  |  |
| C[C@@H]1O[C@@H](O[C@H]2[C@H](OC(=O)[C@]34CCC(C)(C)C[C@H]3C3=CC[C@@H]5[C@@]6(C)C[C@H](O)[C@H](O[C@@H]7O[C@H](CO)[C@@H](O)[C@H](O[C@@H]8O[C@H](CO)[C@@H](O)[C@H](O)[C@H]8O)[C@H]7O)[C@@](C)(CO)[C@@H]6CC[C@@]5(C)[C@]3(C)C[C@H]4O)OC[C@H](O)[C@@H]2O)[C@H](O)[C@H](O)[C@H]1O[C@@H]1OC[C@@H](O)[C@H](O[C@@H]2OC[C@](O)(CO)[C@H]2O)[C@H]1O [Compound 17, Polygalacin D2] | 31.14 ± 0.78 µM | 26.21 ± 0.82 µM | 2.25 ± 2.46% | 17.7 ± 3.14% | 97.5 ± 1.83% | 88 ± 8.92% |  |  |  |  |  |  |  |  |  |  |  |
| O=c1cc(-c2ccc(O)cc2)oc2cc(O)c([C@@H]3O[C@H](CO)[C@@H](O)[C@H](O)[C@H]3O)c(O)c12 [Compound 20, Isovitexin] | 28.39 ± 0.07 µM | 22.82 ± 0.27 µM | 10.2 ± 4.73% | 29.8 ± 0.6% | 135 ± 11.8% | 95.7 ± 2.75% |  |  |  |  |  |  |  |  |  |  |  |
| O=c1cc(-c2ccc(O)cc2)oc2c([C@@H]3O[C@H](CO)[C@@H](O)[C@H](O)[C@H]3O)c(O)cc(O)c12 [Compound 21, Vitexin] | 28.88 ± 1.38 µM | 17.81 ± 1.13 µM |  |  | 90.5 ± 2.51% | 81.8 ± 4.38% |  |  |  |  |  |  |  |  | 9.39 ± 4.33% | 44.1 ± 3.56% |  |
| N[C@@H](Cc1c[nH]c2ccccc12)C(=O)O [Compound 24, Tryptophan] | 30.49 ± 0.93 µM | 24.19 ± 0.72 µM |  |  | 105 ± 6.13% | 92.4 ± 8.71% |  |  |  |  |  |  | 4.24 ± 2.92% | 24 ± 2.27% |  |  |  |
| Nc1ncnc2c1ncn2[C@@H]1O[C@H](CO)[C@@H](O)[C@H]1O [Compound 25, Adenosine] | 27.43 ± 1.35 µM | 20.69 ± 1.74 µM | 13.9 ± 4.23% | 35.1 ± 5.47% | 81.6 ± 1.26% | 80.5 ± 6.19% |  |  |  |  |  |  |  |  |  |  |  |
